Experiments:
SKOV-3 cells = test: Sulforhodamine B (SRB) cell proliferation assay, 5-day treatment, SKOV-3; format: cell-based, human; conditions: 5 days
Experimental: (§1) Human ovarian carcinoma cell lines OVCAR-3, SKOV-3, 1A9 and 1A9PTX22 were used. OVCAR-3 and SKOV-3 cells were obtained from the American Type Culture Collection (ATCC) and maintained on RPMI medium and McCoy5A medium respectively according to ATCC instructions. 1A9 is a clone of the human ovarian carcinoma cell line, A2780 (Sackett et al., 1997). 1A9PTX22 is a paclitaxel resistant subclone of 1A9 cells, isolated as an individual clone in a single step selection by exposing 1A9 cells to 5 ng/ml paclitaxel in the presence of 5 μg/ml verapamil, a Pgp antagonist (Giannakakou et al., 1997). Cells were maintained in 15 ng/ml paclitaxel and 5 μg/ml verapamil continuously.
(§2) Sulforhodamine B (SRB) colorimetric assay was used to study the effect of albendazole, paclitaxel or their combination on tumour cell cytotoxicity in vitro.
(§3) Cells were harvested from exponential phase cultures by trypsinization, counted and plated in 96-well plates. Optimal seeding densities for each cell line were determined to ensure exponential growth during a 5-day assay. Seeding densities were 5000, 1000, 400 and 3500 cells per well for OVCAR-3, SKOV-3, 1A9 and 1A9PTX22 cells, respectively. […] The plates were left to dry at room temperature and bound protein stain was solubilized with 100 μl 10 mM un-buffered Tris base [tris(hydroxymethyl)aminomethane)] before reading the optical density (OD) at 570 nm. […]

1A9 cells = test: Sulforhodamine B (SRB) cell proliferation assay, 5-day treatment, 1A9; format: cell-based; conditions: Homo sapiens
Experimental: as §1, §2, §3

1A9PTX22 cells [1] = test: Sulforhodamine B (SRB) cell proliferation assay, 5-day treatment, 1A9PTX22 (paclitaxel resistant); format: cell-based, human; conditions: for effect on cell proliferation: 1A9PTX22
Experimental: as §1, §2
Cells were harvested from exponential phase cultures by trypsinization, counted and plated in 96-well plates. Optimal seeding densities for each cell line were determined to ensure exponential growth during a 5-day assay. Seeding densities were 5000, 1000, 400 and 3500 cells per well for OVCAR-3, SKOV-3, 1A9 and 1A9PTX22 cells, respectively. Cells plated in 96-well tissue culture plates were treated with 100 μl cell culture medium containing various concentrations of albendazole, paclitaxel or a combination of the two. […] Treatment media were replaced on alternate days. At the end of the treatment period (5 days), wells were assayed for cellular protein content. The SRB assay was performed according to the method described by Skehan et al. (1990) and Papazisis at al. (1997), with minor modifications. The culture medium was aspirated prior to fixation of the cells by the addition of 100 μl 10% cold trichloroacetic acid. After an hour incubation at 4° C., cells were washed five times with water. The cells were then stained with 200 μl 0.4% SRB dissolved in 1% acetic acid for at least 15 min and subsequently washed four times with 1% acetic acid to remove unbound stain. The plates were left to dry at room temperature and bound protein stain was solubilized with 100 μl 10 mM un-buffered Tris base [tris(hydroxymethyl)aminomethane)] before reading the optical density (OD) at 570 nm.
For each of the four cell lines used in this study, sensitivity of each line was initially tested by incubating cells with various concentrations of albendazole or paclitaxel for 5 days. The SRB assay was performed at the end of the treatment period to determine cell response to drug treatment.

1A9PTX22 cells [2] = test: SRB assay, 72 hours, cross resistance of 1A9PTX22 compared to parent line 1A9; format: cell-based, human; conditions: for concentration at which partial resistance of 1A9PTX22 is apparent: 1A9PTX22 vs 1A9, p<0.001; for degree of sensitivity of 1A9PTX22 cells compared to parent cell line 1A9: various concentrations
Experimental: Cells were harvested from exponential phase cultures by trypsinization, counted and plated in 96-well plates. Optimal seeding densities for each cell line were determined to ensure exponential growth during a 5-day assay. Seeding densities were 5000, 1000, 400 and 3500 cells per well for OVCAR-3, SKOV-3, 1A9 and 1A9PTX22 cells, respectively. Cells plated in 96-well tissue culture plates were treated with 100 μl cell culture medium containing various concentrations of albendazole, paclitaxel or a combination of the two. Both albendazole and paclitaxel were originally made up in absolute ethanol and subsequently diluted with cell culture medium to give the desired drug concentrations with a final ethanol concentration of 1%. Treatment media were replaced on alternate days. At the end of the treatment period (5 days), wells were assayed for cellular protein content. The SRB assay was performed according to the method described by Skehan et al. (1990) and Papazisis at al. (1997), with minor modifications. The culture medium was aspirated prior to fixation of the cells by the addition of 100 μl 10% cold trichloroacetic acid. After an hour incubation at 4° C., cells were washed five times with water. The cells were then stained with 200 μl 0.4% SRB dissolved in 1% acetic acid for at least 15 min and subsequently washed four times with 1% acetic acid to remove unbound stain. The plates were left to dry at room temperature and bound protein stain was solubilized with 100 μl 10 mM un-buffered Tris base [tris(hydroxymethyl)aminomethane)] before reading the optical density (OD) at 570 nm.
1A9 and 1A9PTX22 cells plated in 96-well tissue culture plates were treated with 100 μl cell culture medium containing various concentrations of vincristine and colchicine for 72 hours and SRB assays conducted as described above. As for paclitaxel (see Example 1), both vincristine and colchicine were originally made up in absolute ethanol and subsequently diluted with cell culture medium to give the desired drug concentrations with a final ethanol concentration of 1%. The results are illustrated in FIGS. 5A (vincristine) and 5B (colchicine). […] The partial resistance of 1A9PTX22 is apparent for vincristine at concentrations of 5 nM and above and for colchicine at 100 nM and above (p<0.001).

CC(=O)O[C@H]1C(=O)[C@@]2(C)[C@H]([C@H](OC(=O)c3ccccc3)[C@]3(O)C[C@H](OC(=O)[C@H](O)[C@@H](NC(=O)c4ccccc4)c4ccccc4)C(C)=C1C3(C)C)[C@]1(OC(C)=O)CO[C@@H]1C[C@@H]2O [paclitaxel]
inhibition at 10 pM (SKOV-3 cells; Homo sapiens, SK-OV-3, 120 h, 0.01 nM paclitaxel alone): 14.5%
inhibition at 0.0001 µM (1A9 cells; 120 h, 1A9, 0.1 nM paclitaxel alone, 5 days): 21.8%
effect on cell proliferation (1A9PTX22 cells [1]; 1.0 nM paclitaxel alone, 5 days): not affected
effect on cell proliferation (1A9PTX22 cells [1]; 5.0 nM paclitaxel alone, 5 days): not affected
increase in paclitaxel concentration required in paclitaxel-resistant cell lines for a response similar to paclitaxel-sensitive cells (1A9PTX22 cells [1]; paclitaxel alone, resistant vs sensitive cells): approximately 50 fold

COc1cc2c(c(OC)c1OC)-c1ccc(OC)c(=O)cc1[C@@H](NC(C)=O)CC2 [colchicine]
concentration at which partial resistance of 1A9PTX22 is apparent (1A9PTX22 cells [2]): ≥ 100 nM
degree of sensitivity of 1A9PTX22 cells compared to parent cell line 1A9 (1A9PTX22 cells [2]): significantly reduced

CCCSc1ccc2nc(NC(=O)OC)[nH]c2c1 [albendazole]
reduction in cell proliferation (SKOV-3 cells; 0.25 μM albendazole alone): 48.4%
inhibition at 0.1 µM (1A9 cells; 1A9, 120 h, read-out: inhibition of proliferation): 11.8%
sensitivity of 1A9PTX22 compared to the parent line (1A9) (1A9PTX22 cells [1]; 1A9PTX22 vs 1A9, various concentrations, 5 days): even more sensitive
inhibition at 1 µM (1A9PTX22 cells [1]; Homo sapiens, 1A9/ptx-22, 120 h, read-out: inhibitory effect on proliferation): 53%

CC[C@]1(O)C[C@H]2CN(CCc3c([nH]c4ccccc34)[C@@](C(=O)OC)(c3cc4c(cc3OC)N(C=O)[C@H]3[C@@](O)(C(=O)OC)[C@H](OC(C)=O)[C@]5(CC)C=CCN6CC[C@]43[C@@H]65)C2)C1 [vincristine]
concentration at which partial resistance of 1A9PTX22 is apparent (1A9PTX22 cells [2]): ≥ 5 nM
degree of sensitivity of 1A9PTX22 cells compared to parent cell line 1A9 (1A9PTX22 cells [2]): significantly reduced

— patent US8835478B2, “Treatment for cancer” (Pitney Pharmaceuticals PTY Limited, priority 2005, dated 2014)
